According to PubChem BioAssay (NCI):
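Protocol summary: plate cells (96-well), add compound at 5 concentrations, incubate 48 h, interpolate endpoints linearly. GI50 marks 50% less growth. TGI is the concentration that stops growth completely.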

Key:
Assay in all cases: growth of human tumour cells (NCI), 48 h
HCT-116 colon = system: HCT-116 colon
SW-620 colon = system: SW-620 colon
CCRF-CEM leukemia = system: CCRF-CEM leukemia
LOX IMVI melanoma = system: LOX IMVI melanoma
SNB-19 CNS = system: SNB-19 CNS
NCI-H23 lung = system: NCI-H23 lung
UACC-62 melanoma = system: UACC-62 melanoma
CAKI-1 renal = system: CAKI-1 renal
MDA-MB-231 breast = system: MDA-MB-231 breast
MDA-N = system: MDA-N

Row | SMILES | TGI (HCT-116 colon) [µM] | TGI (SW-620 colon) [µM] | TGI (CCRF-CEM leukemia) [µM] | TGI (LOX IMVI melanoma) [µM] | TGI (SNB-19 CNS) [µM] | TGI (NCI-H23 lung) [µM] | TGI (UACC-62 melanoma) [µM] | TGI (CAKI-1 renal) [µM] | GI50 (HCT-116 colon) [µM] | GI50 (MDA-MB-231 breast) [µM] | TGI (MDA-MB-231 breast) [µM] | GI50 (SW-620 colon) [µM] | GI50 (CCRF-CEM leukemia) [µM] | GI50 (LOX IMVI melanoma) [µM] | GI50 (SNB-19 CNS) [µM] | GI50 (NCI-H23 lung) [µM] | GI50 (UACC-62 melanoma) [µM] | GI50 (CAKI-1 renal) [µM] | TGI (MDA-N) [µM]
1 | COC(OC)c1cccc2c1C(=O)CCC1(CC2)OCCCCO1 | > 100 | > 100 | > 100 | > 100 | > 100 | > 100 | > 100 | > 100 |  |  |  |  |  |  |  |  |  |  | 
2 | O=C(c1ccccc1)c1nn(-c2cccc(Cl)c2)c2nc3nc(-c4ccccc4)cc(=O)n3nc12 | > 25 | > 25 | > 25 | > 25 | > 25 | > 25 | > 25 | > 25 | > 25 | > 25 | > 25 | > 25 | > 25 | > 25 | > 25 | > 25 | > 25 | > 25 | 
3 | CN1C/C(=C\c2ccccc2)C2=NN(C(N)=S)[C@H](c3ccccc3)[C@@H]2C1 | > 100 | > 100 | > 100 | > 100 | > 100 | > 100 | > 100 |  |  |  |  |  |  |  |  |  |  |  | 
4 | CC1(C)OCC(/C=C\C(O)CC2(C)OCCO2)CO1 (centres undefined) | > 100 | > 100 |  | > 100 | > 100 |  | > 100 | > 100 |  |  | > 100 |  |  |  |  |  |  |  | > 100
5 | N#CCCN(C(=O)Nc1ccc(NC(=O)N(CCC#N)c2ccccc2)cc1)c1ccccc1 | > 100 | > 100 |  | > 100 | > 100 | > 100 | > 100 | > 100 |  |  | > 100 |  |  |  |  |  |  |  | > 100
6 | C=CC[PH+](c1ccccc1)c1ccccc1.C=CC[PH+](c1ccccc1)c1ccccc1.[Pt+2].[S-]c1nc2ccccc2[nH]1.[S-]c1nc2ccccc2[nH]1 |  |  | > 100 |  |  |  |  | 12.8 |  |  |  |  | 1.9 |  |  |  |  | 2.54 | 
7 | C=CCCCCCCCCCOC1C=CC(O)C(CO)O1 (centres undefined) | > 100 | > 100 |  | > 100 | > 100 | 97.5 | 97.4 | > 100 |  |  | > 100 |  |  |  |  |  |  |  | 82.1
8 | NC1=Nc2ncccc2C(=O)NN1 | > 10 | > 10 | > 10 | > 10 | > 10 | > 10 | > 10 |  |  |  | > 10 |  |  |  |  |  |  |  | > 10
9 | C(/C=C(\Nc1ccccc1)c1ccc2ccccc2c1)=Nc1ccccc1 | 10 | 17.3 | 2.85 | 5.4 | 8.24 | 6.63 | 3.37 | 7.22 |  |  | 4.1 |  |  |  |  |  |  |  | 
10 | Cc1ccc(NC(c2ccccc2)P(=O)(c2ccccc2)c2ccccc2)cc1 (centres undefined) | > 100 | > 100 |  | > 100 | > 100 | > 100 | > 100 | > 100 |  |  | > 100 |  |  |  |  |  |  |  | > 100
11 | Cc1cccc(NC(=S)NNC(=O)c2cc(-c3ccccc3)nc3ccccc23)c1 | 48.4 | > 100 | 35.4 |  | > 100 | 84.8 | 99.7 | 72.4 |  |  | 95 |  |  |  |  |  |  |  | > 100
